Data as given in article PMC13578988, “No ancillary proteins are essential for the functional heterologous expression of the homomeric α6 nicotinic acetylcholine receptor from the brown castor tick Ixodes ricinus” (Current Research in Parasitology & Vector-borne Diseases, 2026).

Legend:
[1] = test system: Asu-ACR-16; details: cited from earlier work
[2] = test system: T1, Iricα6B (homomeric α6 nicotinic acetylcholine receptor, splice variant B); assay: two-electrode voltage clamp in Xenopus laevis oocytes expressing Iricα6B (agonist dose-response); type: cell-based, Ixodes ricinus
T1 construct: full-length Iricα6B, 517 amino acids (exon 3b only), homopentamer

SMILES	EC50 [1]	EC50 [2]
CC(=O)OCC[N+](C)(C)C [ACh, acetylcholine]	5900 nM	
CC(=O)OCC[N+](C)(C)C [acetylcholine]		2000 nM
CN/C(=N/CC1CCOC1)N[N+](=O)[O-] (centres unmarked) [dinotefuran]		0.42 nM
O=[N+]([O-])NC1=NCCN1Cc1ccc(Cl)nc1 [imidacloprid]		11.6 nM
CN1CCC[C@H]1c1cccnc1 [nicotine]	4500 nM	
